# Test results as given in patent US20100242139A1, “XENOHORMESIS BASED COMPOSITIONS AND METHODS” (President and Fellows of Harvard College, priority 2006, published 2010).
# Assays:
# Settings in all cases: compound at 20 μM; vs reference with no compound
# IRR(h) = IRR(h) (Homo sapiens, UniProt P14616); experiment: kinase panel activity, IRR(h); assay type: biochemical
# PAK6(h) = PAK6(h) (Homo sapiens, UniProt Q9NQU5); experiment: kinase panel activity, PAK6(h); assay type: biochemical
# NEK6(h) = NEK6(h) (Homo sapiens, UniProt Q9HC98); experiment: kinase panel activity, NEK6(h); assay type: biochemical
# CDK9/cyclin T1(h) = CDK9/cyclin T1(h) (Homo sapiens, UniProt P50750); experiment: kinase panel activity, CDK9/cyclin T1(h); assay type: biochemical
# SAPK4(h) = SAPK4(h) (Homo sapiens, UniProt O15264); experiment: kinase panel activity, SAPK4(h); assay type: biochemical
# AMPK(r) = experiment: kinase panel activity, AMPK(r); assay type: biochemical, rat
# Rsk2(h) = Rsk2(h) (Homo sapiens, UniProt P51812); experiment: kinase panel activity, Rsk2(h); assay type: biochemical
# Rsk2(h), sequence (P51812 whole entry): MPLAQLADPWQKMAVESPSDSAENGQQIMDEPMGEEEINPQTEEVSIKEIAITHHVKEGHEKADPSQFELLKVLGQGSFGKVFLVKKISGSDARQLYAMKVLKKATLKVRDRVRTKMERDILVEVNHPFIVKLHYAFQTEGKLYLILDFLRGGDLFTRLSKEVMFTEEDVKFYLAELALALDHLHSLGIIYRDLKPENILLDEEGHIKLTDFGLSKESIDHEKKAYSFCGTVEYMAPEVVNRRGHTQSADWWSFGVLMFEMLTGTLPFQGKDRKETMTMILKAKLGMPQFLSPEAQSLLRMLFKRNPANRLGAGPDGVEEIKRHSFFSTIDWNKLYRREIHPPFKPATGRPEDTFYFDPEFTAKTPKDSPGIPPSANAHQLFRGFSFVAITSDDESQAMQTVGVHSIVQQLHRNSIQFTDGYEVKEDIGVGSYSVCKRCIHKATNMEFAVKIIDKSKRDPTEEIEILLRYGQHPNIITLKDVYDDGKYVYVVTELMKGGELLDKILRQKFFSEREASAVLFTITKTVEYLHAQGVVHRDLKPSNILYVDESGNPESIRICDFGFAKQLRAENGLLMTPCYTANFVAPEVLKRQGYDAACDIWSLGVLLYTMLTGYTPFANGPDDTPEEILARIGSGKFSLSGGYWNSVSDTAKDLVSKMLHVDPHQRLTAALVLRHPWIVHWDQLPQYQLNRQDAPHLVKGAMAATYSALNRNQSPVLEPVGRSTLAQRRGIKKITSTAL
# CDK2/cyclinA(h) = CDK2/cyclinA(h) (Homo sapiens, UniProt P24941); experiment: kinase panel activity, CDK2/cyclinA(h); assay type: biochemical
# MST1(h) = MST1(h) (Homo sapiens, UniProt Q13043); experiment: kinase panel activity, MST1(h); assay type: biochemical
# PKG1β(h) = PKG1β(h) (Homo sapiens, UniProt Q13976); experiment: kinase panel activity, PKG1β(h); assay type: biochemical
# cKit(h) = cKit(h) (Homo sapiens, UniProt P10721); experiment: kinase panel activity, cKit(h); assay type: biochemical
# ZAP-70(h) = ZAP-70(h) (Homo sapiens, UniProt P43403); experiment: kinase panel activity, ZAP-70(h); assay type: biochemical
# IGF-1R(h) = IGF-1R(h) (Homo sapiens, UniProt P08069); experiment: kinase panel activity, IGF-1R(h); assay type: biochemical
# PKBα(h) = PKBα(h) (Homo sapiens, UniProt P31749); experiment: kinase panel activity, PKBα(h); assay type: biochemical
# JNK3(h) = JNK3(h) (Homo sapiens, UniProt P53779); experiment: kinase panel activity, JNK3(h); assay type: biochemical
# FGFR1(h) = FGFR1(h) (Homo sapiens, UniProt P11362); experiment: kinase panel activity, FGFR1(h); assay type: biochemical
# SAPK2b(h) = SAPK2b(h) (Homo sapiens, UniProt Q15759); experiment: kinase panel activity, SAPK2b(h); assay type: biochemical
# Flt1(h) = Flt1(h) (Homo sapiens, UniProt P17948); experiment: kinase panel activity, Flt1(h); assay type: biochemical
# Fgr(h) = Fgr(h) (Homo sapiens, UniProt P09769); experiment: kinase panel activity, Fgr(h); assay type: biochemical
# SGK(h) = SGK(h) (Homo sapiens, UniProt O00141); experiment: kinase panel activity, SGK(h); assay type: biochemical
# PKA(h) = PKA(h) (Homo sapiens, UniProt P17612); experiment: kinase panel activity, PKA(h); assay type: biochemical
# SGK2(h) = SGK2(h) (Homo sapiens, UniProt Q9HBY8); experiment: kinase panel activity, SGK2(h); assay type: biochemical
# SGK2(h), sequence (Q9HBY8 whole entry): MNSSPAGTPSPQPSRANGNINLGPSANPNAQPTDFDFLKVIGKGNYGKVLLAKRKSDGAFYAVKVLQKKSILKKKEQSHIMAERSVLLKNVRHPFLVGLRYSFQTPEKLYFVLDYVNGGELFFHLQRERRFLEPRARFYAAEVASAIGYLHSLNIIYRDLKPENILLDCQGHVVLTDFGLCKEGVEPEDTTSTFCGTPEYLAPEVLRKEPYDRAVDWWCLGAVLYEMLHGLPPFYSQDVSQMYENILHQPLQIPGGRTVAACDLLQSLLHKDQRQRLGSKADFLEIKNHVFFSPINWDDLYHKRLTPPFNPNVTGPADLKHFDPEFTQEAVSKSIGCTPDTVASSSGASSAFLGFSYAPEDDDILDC
# NEK2(h) = NEK2(h) (Homo sapiens, UniProt P51955); experiment: kinase panel activity, NEK2(h); assay type: biochemical
# NEK2(h), sequence (P51955 whole entry): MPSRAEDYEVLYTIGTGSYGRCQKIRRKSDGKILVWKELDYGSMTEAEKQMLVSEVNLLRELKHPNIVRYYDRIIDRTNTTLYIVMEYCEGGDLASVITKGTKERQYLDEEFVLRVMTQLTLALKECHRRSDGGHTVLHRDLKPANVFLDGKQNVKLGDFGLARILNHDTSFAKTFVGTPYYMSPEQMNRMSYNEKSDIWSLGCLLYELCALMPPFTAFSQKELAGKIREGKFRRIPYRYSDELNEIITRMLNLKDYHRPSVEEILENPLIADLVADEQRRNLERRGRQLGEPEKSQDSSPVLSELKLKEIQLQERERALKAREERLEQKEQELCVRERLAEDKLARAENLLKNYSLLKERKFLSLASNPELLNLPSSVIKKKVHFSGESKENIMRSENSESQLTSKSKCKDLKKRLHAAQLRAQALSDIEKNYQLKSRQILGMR
# Ros(h) = Ros(h) (Homo sapiens, UniProt P08922); experiment: kinase panel activity, Ros(h); assay type: biochemical
# ALK(h) = ALK(h) (Homo sapiens, UniProt Q9UM73); experiment: kinase panel activity, ALK(h); assay type: biochemical
# TBK1(h) = TBK1(h) (Homo sapiens, UniProt Q9UHD2); experiment: kinase panel activity, TBK1(h); assay type: biochemical
# MST2(h) = MST2(h) (Homo sapiens, UniProt Q13188); experiment: kinase panel activity, MST2(h); assay type: biochemical
# MST2(h), sequence (Q13188 whole entry): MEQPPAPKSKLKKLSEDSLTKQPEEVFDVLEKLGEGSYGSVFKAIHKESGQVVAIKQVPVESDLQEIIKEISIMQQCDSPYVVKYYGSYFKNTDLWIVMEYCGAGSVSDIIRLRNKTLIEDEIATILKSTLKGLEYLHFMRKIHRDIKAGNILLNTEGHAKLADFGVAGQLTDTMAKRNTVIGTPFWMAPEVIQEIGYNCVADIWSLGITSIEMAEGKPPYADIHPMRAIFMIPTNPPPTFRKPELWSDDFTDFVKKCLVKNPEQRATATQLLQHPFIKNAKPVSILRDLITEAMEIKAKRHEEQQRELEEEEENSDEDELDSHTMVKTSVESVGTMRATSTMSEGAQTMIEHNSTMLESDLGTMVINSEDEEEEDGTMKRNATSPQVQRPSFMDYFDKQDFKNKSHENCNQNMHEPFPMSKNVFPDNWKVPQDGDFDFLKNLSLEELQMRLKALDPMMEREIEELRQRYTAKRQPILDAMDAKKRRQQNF
# CHK1(h) = CHK1(h) (Homo sapiens, UniProt O14757); experiment: kinase panel activity, CHK1(h); assay type: biochemical
# CHK1(h), sequence (O14757 whole entry): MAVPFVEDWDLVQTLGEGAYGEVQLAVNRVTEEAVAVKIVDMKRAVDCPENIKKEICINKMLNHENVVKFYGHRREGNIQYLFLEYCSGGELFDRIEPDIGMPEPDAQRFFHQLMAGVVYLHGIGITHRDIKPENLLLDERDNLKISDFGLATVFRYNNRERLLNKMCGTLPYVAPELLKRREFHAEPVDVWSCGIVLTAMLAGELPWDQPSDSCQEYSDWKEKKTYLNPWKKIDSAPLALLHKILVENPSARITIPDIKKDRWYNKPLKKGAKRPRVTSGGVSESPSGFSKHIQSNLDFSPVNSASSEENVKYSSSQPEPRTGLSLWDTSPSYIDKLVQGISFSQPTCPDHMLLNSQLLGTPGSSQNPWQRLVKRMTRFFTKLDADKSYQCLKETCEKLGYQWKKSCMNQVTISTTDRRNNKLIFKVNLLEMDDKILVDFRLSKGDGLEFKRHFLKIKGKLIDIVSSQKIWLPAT
# PDGFRβ(h) = PDGFRβ(h) (Homo sapiens, UniProt P09619); experiment: kinase panel activity, PDGFRβ(h); assay type: biochemical
# EGFR(h) = EGFR(h) (Homo sapiens, UniProt P00533); experiment: kinase panel activity, EGFR(h); assay type: biochemical
# TrkA(h) = TrkA(h) (Homo sapiens, UniProt P04629); experiment: kinase panel activity, TrkA(h); assay type: biochemical
# CDK7/cyclinH/MAT1(h) = CDK7/cyclinH/MAT1(h) (Homo sapiens, UniProt P50613); experiment: kinase panel activity, CDK7/cyclinH/MAT1(h); assay type: biochemical
# PDK1(h) = PDK1(h) (Homo sapiens, UniProt O15530); experiment: kinase panel activity, PDK1(h); assay type: biochemical
# PDK1(h), sequence (O15530 whole entry): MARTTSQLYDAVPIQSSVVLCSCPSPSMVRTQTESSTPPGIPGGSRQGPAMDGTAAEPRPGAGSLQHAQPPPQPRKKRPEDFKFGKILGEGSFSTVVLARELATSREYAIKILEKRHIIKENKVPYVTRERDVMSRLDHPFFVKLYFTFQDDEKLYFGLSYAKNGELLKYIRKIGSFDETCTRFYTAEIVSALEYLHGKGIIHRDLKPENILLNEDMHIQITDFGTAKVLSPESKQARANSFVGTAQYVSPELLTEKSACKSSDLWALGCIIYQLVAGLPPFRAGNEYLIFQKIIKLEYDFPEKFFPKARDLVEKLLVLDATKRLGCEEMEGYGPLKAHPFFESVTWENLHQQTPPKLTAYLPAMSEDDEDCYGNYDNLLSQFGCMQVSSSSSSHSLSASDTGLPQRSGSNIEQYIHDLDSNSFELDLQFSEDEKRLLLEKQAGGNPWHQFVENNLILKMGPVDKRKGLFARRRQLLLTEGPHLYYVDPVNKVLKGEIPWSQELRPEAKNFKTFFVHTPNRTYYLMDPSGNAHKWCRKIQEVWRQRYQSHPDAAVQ
# PIk3(h) = PIk3(h) (Homo sapiens, UniProt Q9H4B4); experiment: kinase panel activity, PIk3(h); assay type: biochemical
# SAPK3(h) = SAPK3(h) (Homo sapiens, UniProt P53778); experiment: kinase panel activity, SAPK3(h); assay type: biochemical
# SAPK3(h), sequence (P53778 whole entry): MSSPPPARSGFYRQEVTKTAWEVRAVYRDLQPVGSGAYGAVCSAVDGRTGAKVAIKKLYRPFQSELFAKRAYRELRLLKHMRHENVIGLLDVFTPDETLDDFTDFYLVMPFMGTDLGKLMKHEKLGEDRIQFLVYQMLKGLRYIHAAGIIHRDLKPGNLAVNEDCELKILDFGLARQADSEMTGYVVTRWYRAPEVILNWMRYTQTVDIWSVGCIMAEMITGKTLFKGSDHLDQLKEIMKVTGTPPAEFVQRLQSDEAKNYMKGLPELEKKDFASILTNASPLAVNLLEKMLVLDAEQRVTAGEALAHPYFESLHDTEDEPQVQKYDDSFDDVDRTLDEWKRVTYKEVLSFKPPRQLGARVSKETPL
# NEK3(h) = NEK3(h) (Homo sapiens, UniProt P51956); experiment: kinase panel activity, NEK3(h); assay type: biochemical
# NEK3(h), sequence (P51956 whole entry): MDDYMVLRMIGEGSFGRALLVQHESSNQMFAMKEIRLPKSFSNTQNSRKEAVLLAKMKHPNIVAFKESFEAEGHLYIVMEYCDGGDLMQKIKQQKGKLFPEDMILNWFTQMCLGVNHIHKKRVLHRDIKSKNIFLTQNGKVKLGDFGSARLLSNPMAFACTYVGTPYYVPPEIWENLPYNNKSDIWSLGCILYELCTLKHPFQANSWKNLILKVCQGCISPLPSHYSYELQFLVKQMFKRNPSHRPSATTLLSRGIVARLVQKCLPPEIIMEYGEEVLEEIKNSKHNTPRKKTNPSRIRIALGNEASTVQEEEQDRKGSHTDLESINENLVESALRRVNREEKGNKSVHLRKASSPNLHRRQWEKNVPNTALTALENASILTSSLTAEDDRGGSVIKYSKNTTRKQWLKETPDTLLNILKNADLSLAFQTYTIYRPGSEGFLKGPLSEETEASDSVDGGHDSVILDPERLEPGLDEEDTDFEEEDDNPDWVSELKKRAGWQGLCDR
# GSK3α(h) = GSK3α(h) (Homo sapiens, UniProt P49840); experiment: kinase panel activity, GSK3α(h); assay type: biochemical
# Fms(h) = Fms(h) (Homo sapiens, UniProt P07333); experiment: kinase panel activity, Fms(h); assay type: biochemical
# Fms(h), sequence (P07333 20-972): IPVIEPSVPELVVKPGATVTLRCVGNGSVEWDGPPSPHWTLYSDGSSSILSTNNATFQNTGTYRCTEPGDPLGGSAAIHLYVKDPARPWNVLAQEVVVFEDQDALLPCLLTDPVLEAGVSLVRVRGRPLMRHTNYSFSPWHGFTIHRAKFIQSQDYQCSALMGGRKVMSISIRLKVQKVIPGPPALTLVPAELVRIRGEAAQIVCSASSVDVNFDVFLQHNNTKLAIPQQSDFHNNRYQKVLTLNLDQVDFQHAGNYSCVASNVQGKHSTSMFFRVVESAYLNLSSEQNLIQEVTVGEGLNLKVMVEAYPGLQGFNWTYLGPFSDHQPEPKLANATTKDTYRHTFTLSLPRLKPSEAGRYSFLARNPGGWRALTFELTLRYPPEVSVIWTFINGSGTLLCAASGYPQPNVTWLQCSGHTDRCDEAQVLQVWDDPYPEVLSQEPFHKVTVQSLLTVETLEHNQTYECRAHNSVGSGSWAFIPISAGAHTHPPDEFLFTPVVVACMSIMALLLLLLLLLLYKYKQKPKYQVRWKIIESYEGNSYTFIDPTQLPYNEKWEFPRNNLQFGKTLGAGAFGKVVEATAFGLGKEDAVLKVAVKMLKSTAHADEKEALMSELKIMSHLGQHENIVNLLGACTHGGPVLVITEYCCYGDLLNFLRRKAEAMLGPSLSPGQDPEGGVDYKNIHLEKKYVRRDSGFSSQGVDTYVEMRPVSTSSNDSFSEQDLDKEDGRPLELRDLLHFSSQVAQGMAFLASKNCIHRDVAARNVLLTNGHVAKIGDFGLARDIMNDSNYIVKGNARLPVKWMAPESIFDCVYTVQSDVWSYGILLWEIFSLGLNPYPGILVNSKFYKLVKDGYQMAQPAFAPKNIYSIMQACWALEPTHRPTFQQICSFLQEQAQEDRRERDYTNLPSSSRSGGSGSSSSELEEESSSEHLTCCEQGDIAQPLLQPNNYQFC
# LKB1(h) = LKB1(h) (Homo sapiens, UniProt Q15831); experiment: kinase panel activity, LKB1(h); assay type: biochemical
# IRAK1(h) = IRAK1(h) (Homo sapiens, UniProt P51617); experiment: kinase panel activity, IRAK1(h); assay type: biochemical
structure (smiles),measurement,setting,value
"O=C(O)[C@H]1O[C@@H](Oc2ccc(/C=C/c3cc(O)cc(O)c3)cc2)[C@H](O)[C@@H](O)[C@@H]1O [Res 4′-Gluc, resveratrol-4-glucuronide]",percent activity of IRR(h),IRR(h),93%
same,percent activity of PAK6(h),PAK6(h),128%
same,percent activity of NEK6(h),NEK6(h),107%
same,percent activity of CDK9/cyclin T1(h),CDK9/cyclin T1(h),105%
same,percent activity of SAPK4(h),SAPK4(h),104%
same,percent activity of AMPK(r),AMPK(r),43%
same,percent activity of Rsk2(h),Rsk2(h),100%
same,percent activity of CDK2/cyclinA(h),CDK2/cyclinA(h),98%
same,percent activity of MST1(h),MST1(h),106%
same,percent activity of PKG1β(h),PKG1β(h),58%
same,percent activity of cKit(h),cKit(h),100%
same,percent activity of ZAP-70(h),ZAP-70(h),125%
same,percent activity of IGF-1R(h),IGF-1R(h),87%
same,percent activity of PKBα(h),PKBα(h),96%
same,percent activity of JNK3(h),JNK3(h),105%
same,percent activity of FGFR1(h),FGFR1(h),45%
same,percent activity of SAPK2b(h),SAPK2b(h),111%
same,percent activity of Flt1(h),Flt1(h),76%
same,percent activity of Fgr(h),Fgr(h),67%
same,percent activity of SGK(h),SGK(h),48%
same,percent activity of PKA(h),PKA(h),105%
same,percent activity of SGK2(h),SGK2(h),91%
same,percent activity of NEK2(h),NEK2(h),103%
same,percent activity of Ros(h),Ros(h),105%
same,percent activity of ALK(h),ALK(h),87%
same,percent activity of TBK1(h),TBK1(h),80%
same,percent activity of MST2(h),MST2(h),120%
same,percent activity of CHK1(h),CHK1(h),117%
same,percent activity of PDGFRβ(h),PDGFRβ(h),119%
same,percent activity of EGFR(h),EGFR(h),106%
same,percent activity of TrkA(h),TrkA(h),32%
same,percent activity of CDK7/cyclinH/MAT1(h),CDK7/cyclinH/MAT1(h),110%
same,percent activity of PDK1(h),PDK1(h),97%
same,percent activity of PIk3(h),PIk3(h),86%
same,percent activity of SAPK3(h),SAPK3(h),106%
same,percent activity of NEK3(h),NEK3(h),105%
same,percent activity of GSK3α(h),GSK3α(h),57%
same,percent activity of Fms(h),Fms(h),94%
same,percent activity of LKB1(h),LKB1(h),95%
same,percent activity of IRAK1(h),IRAK1(h),100%
